Entries after “also recorded” stand apart in the source; their conditions may differ.
Columns and labels:
BMDMs [1] = test: DCFDA ROS assay; format: cell-based, mouse; details: LPS (100 ng/mL) BMDMs, 12 experiments
Procedure: GSH /GSSG, lactate dehydrogenase (LDH) and DCFDA assays were performed according to the manufacturer's instructions. The assays were purchased from vendors as indicated in Supplemental Table S1.

IL-1β = IL-1β release, AlphaLISA; format: cell-based, mouse; details: inflammasome experiment supernatants, 4 experiments
Procedure: (§1) Cytokines were analyzed by EVE Technologies (https://www.evetechnologies.com) using the Luminex 31-Plex kit. Cell culture supernatants were diluted twice with PBS and provided in biological triplicates to EVE Technologies via overnight shipment in dry ice. Individual IL-1β and TNFɑ assays were performed using Perkin Elmer AlphaLISA kits, as per Supplementary Table S1 and vendor instructions.
(§2) BMDMs or J774 cells were plated in 48-well plates at 2 x 10^5 per well. Next day, the medium was changed to Opti-MEM (100 μL per well) without serum and the cells were allowed to equilibrate for 3 h. Next, the cells were pretreated with the indicated concentrations of nanoparticles or controls for 3 h followed by the addition of LPS to some wells to the final LPS concentration of 50 ng/mL. LPS priming continued for another 2 h, following which DMSO (vehicle), Nigericin (5 μM) or adenosine triphosphate (ATP) (1 mM) were added to some wells. Cells were incubated for an additional 30 min and cell culture supernatants were collected on ice. Cells were washed with cold PBS once and lysed/processed as described in immunoblotting section. The supernatants (90 μL) were mixed with 10 μL of 10x SDS loading buffer (10% SDS, 10% Ficoll 400, 0.5 M Tris pH 6.8, 0.5 M DTT, and 0.001% bromophenol blue) and heat-denatured as described in the immunoblotting section. […]

RAW 264.7 cells = test: Gene expression analysis in LPS-stimulated RAW cells; format: cell-based, mouse; details: 1 µM, 24 h, LPS 100 ng/mL; vs VTCC or vehicle
Procedure: RAW 264.7 cells were seeded in 24-well plates at 1.0 x 10^5 per well with LPS (100 ng/mL) and allowed to attach overnight. After a quick wash with PBS, RNA was isolated from cells following the Trizol method. Next, RNA was reverse transcribed to cDNA, and amplified by the polymerase chain reaction (PCR) using reagents from cDNA synthesis kit, SYBR Green PCR Master Mix and target-specific TaqMan probes as indicated in Supplementary Table S1. Roche LightCycler 480 II was used to perform quantification analysis of gene expression using the ΔΔCT method as previously described,[13],[16].

TNFɑ = TNFɑ release, AlphaLISA; format: cell-based, mouse; details: inflammasome experiment supernatants, 4 experiments
Procedure: as §1, §2

CCR2 = test: Uptake in macrophages from CCR2 knockout mice; format: cell-based, mouse; details: CCR2 KO vs wild-type, carboxyfluorescein-labeled
Procedure: Supplementary Figure S6. A) Separate channels for main manuscript Figure 1B.
Uptake of carboxyfluorescein-labeled CCTV or VTCC in cultured bone marrow derived macrophages from B)
CCR2 knockout (KO, B6.129S4-Ccr2 /J) or wild-type (WT) mice; C) wild-type mouse-derived macrophages
pre-treated (6 h) with CCR2 inhibitor BMS CCR2 22 (10 nM) or DMSO as vehicle control. C)
(1 picture or pasted object on this page, not shown here)

[2] = test system: cytokines in cell culture supernatants; test: Cytokine analysis, Luminex panel; format: cell-based, mouse
Procedure: as §1

[3] = test system: F4/80-positive plaque macrophages; test: Immunohistochemistry / plaque macrophage co-staining; format: in vivo, mouse; details: mouse, in vivo
Procedure: (§3) Twenty-four hours after nanoparticle injection (see above), mice were euthanized and abdominal aortas were isolated and embedded in Optimal Cutting Temperature compound. After cryotome-sectioning, resulting in 20-30 slides per mouse, 15 slides were sent to Ohio State laser capture microdissection core lab for capture and analysis. The rest of the slides were processed as follows: after fixation in methanol:acetone 50:50 at -20 °C, slides were hydrated in PBS, blocked for 30 min in fish serum (Aqua Block) and stained for 1 h with primary antibodies against F4/80 followed washing and staining with HRP-conjugated secondary antibody for 30 min. DAB peroxidase kit was then used as per manufacturer's instructions followed by mounting. DAB and antibody staining (but not wash steps) was omitted in slides designated for nanoparticle fluorescence visualization. Nanoparticles fluorescence was visualized with Zeiss 510 LSM-meta confocal microscope and 20x objective. DAB F4/80 staining was visualized with Nikon FN1 microscope and same power objective.

BMDMs [4] = test: GSH/GSSG assay in LPS-primed BMDMs; format: cell-based, mouse; details: LPS-primed (100 ng/mL) BMDMs, 5 µM CCTV vs vehicle, 8 experiments
NLRP3 inflammasome = test: Inflammasome activation immunoblot in BMDMs; format: cell-based, mouse; details: LPS 50 ng/mL, nigericin 5 µM
Procedure: Immunoblotting was performed as previously described with the following modifications. Briefly, cell lysates were obtained in SDS lysis buffer consisting of 2% SDS, 50 mM Tris-HCl (pH 6.8), 100 mM DTT, 5% Ficoll 400, 0.0001% bromophenol blue and a cocktail of protease inhibitors. Lysates were sonicated on ice before heating at 97 °C for 7 min to completely denature the protein. Protein concentration was determined using IR spectroscopy (which is insensitive to high SDS and DTT concentrations) with a Millipore DirectDetect spectrometer. Lysates were equally loaded at 10-15 µg per lane on BioRad TGX Criterion gels (4-15%) and resolved at 300 V in Tris-Glycine running buffer. Proteins were transferred on nitrocellulose membranes using the BioRad TransBlot turbo according to the manufacturer's instructions. Membranes were blocked in fish serum (Aqua Block) or 5% nonfat dry milk in TBS-T (0.05% Tween 20) and probed overnight at 4 °C with primary antibodies as indicated in Supplementary Table S1. The membranes were washed in TBS-T and incubated with secondary antibodies for 1 h at room temperature. After washing, semi-quantitative visualization of the proteins of interest was enabled using an enhanced chemiluminescence reagent as previously described and the Azure C400 western blot imaging system.
as §2, with “section.” for “section. The supernatants (90 μL) were mixed with 10 μL of 10x SDS loading buffer (10% SDS, 10% Ficoll 400, 0.5 M Tris pH 6.8, 0.5 M DTT, and 0.001% bromophenol blue) and heat-denatured as described in the immunoblotting section.”

[5] = test system: nanoparticle-targeted cells in atherosclerotic plaque; test: mRNA analysis of laser-captured nanoparticle-positive plaque areas; format: in vivo, mouse; details: single dose, 24 h, CCTV vs VTCC, 3-4 animals
Procedure: as §3

## CCTV
BMDMs [1]
  ROS production: inhibited ROS production in response to LPS; also recorded: significantly blunted
IL-1β
  IL-1β release: confirmed the actions of CCTV
RAW 264.7 cells
  Il1b mRNA expression: significantly downregulated
  Il6 mRNA expression: significantly downregulated
  Nos2 mRNA expression: significantly downregulated
  Tnf mRNA expression: unaffected
RAW cells
  toxicity of SH-conjugated nanoparticles: very low toxicity
TNFɑ
  TNFɑ release: completely unaffected
CCR2
  uptake in CCR2 knockout macrophages: drastically reduced
[2]; Luminex inflammation array
  levels of 14 cytokines in supernatants: did not detect significant differences among 14 different cytokines
[2]; not statistically significant
  IL-6 cytokine: trend in CCTV-induced downregulation
  IL-12p40 cytokine: though to a lesser extent
[3]
  co-staining with F4/80 in plaque: co-stained with CCTV
BMDMs [4]
  GSH levels: unable to restore GSH levels; also recorded: unaffected
  GSSG levels: unable to restore GSH levels or reduce GSSG; also recorded: unaffected
NLRP3 inflammasome
  IL-1β and its mature form in supernatants (immunoblot): dose-dependently inhibited the production of IL-1β and its mature form
  NLRP3 protein: markedly decreased, but only in nigericin-stimulated, CCTV-treated cells
  cleaved caspase 1 levels: reduced
[5]
  Arg1 mRNA in nanoparticle-targeted plaque cells: slightly upregulated in CCTV-targeted cells, however this was not significant
  Ccl2 mRNA in nanoparticle-targeted plaque cells: downregulated
  Il6 mRNA in nanoparticle-targeted plaque cells: downregulated

Source: article PMC6838142, “Nano-Antagonist Alleviates Inflammation and Allows for MRI of Atherosclerosis” (Nanotheranostics, 2019)
